Read-outs that look alike come from different tables or passages of the source.
Biological target: p97 (Homo sapiens (Human), UniProt P55072)
Assay: P97 ATPase biochem assay (ADP Glo)
Assay type: biochemical
Description: The ATPase assay is performed according the following protocol: Purified enzyme (20 nM p97), substrate (20 μM ATP) and a dose titration of compounds are mixed in buffer (50 mM TRIS pH 7.5, 20 mM MgCl2, 0.02% TX-100, 1 mM DTT, 0.2% (v/v) glycerol) and incubated at 37° C. for 15 minutes. The reaction is terminated and the level of product generated is measured using the ADP Glo Assay Kit (Promega, Madison Wis.). Plotting product generated versus compound concentration and using a four-parameter fit model generates an IC50 value for each compounds.

[1] = 20 nM p97, 20 μM ATP, 37° C., 15 minutes, read-out: p97 biochem IC50

Sequence of p97 (P55072 whole entry): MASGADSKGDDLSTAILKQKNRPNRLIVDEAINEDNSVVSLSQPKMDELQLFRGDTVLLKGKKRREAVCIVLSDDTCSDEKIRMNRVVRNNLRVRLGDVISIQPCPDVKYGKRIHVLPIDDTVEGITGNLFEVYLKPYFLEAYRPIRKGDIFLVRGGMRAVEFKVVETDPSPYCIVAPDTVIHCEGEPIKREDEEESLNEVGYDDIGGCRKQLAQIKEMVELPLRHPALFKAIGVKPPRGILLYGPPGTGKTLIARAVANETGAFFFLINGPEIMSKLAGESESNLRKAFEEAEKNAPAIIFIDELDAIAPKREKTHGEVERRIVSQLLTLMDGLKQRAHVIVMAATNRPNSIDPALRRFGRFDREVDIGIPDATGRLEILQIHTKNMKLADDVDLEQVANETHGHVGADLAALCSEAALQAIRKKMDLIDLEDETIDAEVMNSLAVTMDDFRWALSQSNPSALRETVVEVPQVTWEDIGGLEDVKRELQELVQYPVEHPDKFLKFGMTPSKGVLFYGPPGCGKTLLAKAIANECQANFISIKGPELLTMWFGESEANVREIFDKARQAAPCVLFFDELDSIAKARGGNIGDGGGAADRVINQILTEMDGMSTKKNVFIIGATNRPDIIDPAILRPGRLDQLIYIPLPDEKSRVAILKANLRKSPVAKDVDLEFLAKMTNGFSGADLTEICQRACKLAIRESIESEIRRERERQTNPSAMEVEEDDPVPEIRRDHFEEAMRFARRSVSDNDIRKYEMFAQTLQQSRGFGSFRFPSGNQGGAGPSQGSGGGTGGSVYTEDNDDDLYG

| SMILES | IC50 [1] | IC50 (read-out: p97 IC50) |
| --- | --- | --- |
| Cc1cc2ccccc2n1-c1nc(NCc2ccccc2)c2cccc(C(N)=O)c2n1 | < 2000 nM | – |
| COc1cccc2c(NCc3ccccc3)nc(-n3cnc4ccccc43)nc12 | < 2000 nM | – |
| COc1cccc2c(NCc3ccccc3)nc(-n3c(=O)[nH]c4ccccc43)nc12 | < 2000 nM | – |
| COc1cccc2c(NCc3ccccc3)nc(CCc3ccccc3)nc12 | < 25000 nM | – |
| COCCOc1cccc2c(NCc3ccccc3)nc(-n3c(OC)nc4ccccc43)nc12 [drawing 222] | < 2000 nM | – |
| COCc1cc2ccccc2n1-c1nc2c(c(NCc3ccccc3)n1)CCCC2 | < 2000 nM | – |
| COc1cccc2c(NCc3ccccc3)nc(-n3ccc4ccccc43)nc12 | < 2000 nM | – |
| c1ccc(CNc2nc(-n3c(CN4CCOCC4)cc4ccccc43)nc3c2CCCC3)cc1 [N-benzyl-2-[2-(morpholin-4-ylmethyl)-1H-indol-1-yl]-5,6,7,8-tetrahydroquinazolin-4-amine] | – | < 300 nM |
| CCC1=NC(C)=C(C)C1c1nc(NCc2ccccc2)c2cccc(OC)c2n1 (centres unmarked) | < 25000 nM | – |
| COc1cccc2c(NCc3ccccc3)nc(-n3c(CNC(C)=O)cc4ccccc43)nc12 [drawing 223] | < 2000 nM | – |
| COc1cccc2c(NCc3nccs3)nc(-n3c(N)nc4ccccc43)nc12 | < 25000 nM | – |
| COc1cccc2c(NCc3ccccc3)nc(-n3c(/C=C(/C#N)C(N)=O)cc4ccccc43)nc12 [drawing 243] | < 2000 nM | – |
| CCc1nc2ccccc2n1-c1nc(NCc2ccccc2)c2cccc(OC)c2n1 | < 2000 nM | – |
| COc1cccc2c(NCc3ccccc3)nc(C3CNc4ccccc43)nc12 (centres unmarked) | < 2000 nM | – |
| Cc1cc2ccccc2n1-c1nc(NCc2ccccc2)c2cccc(C#N)c2n1 | < 2000 nM | – |
| COC(=O)N1CCc2c(nc(-n3c(CN)cc4ccccc43)nc2NCc2ccccc2)C1 | < 2000 nM | – |

| SMILES | IC50 [1] | IC50 (read-out: p97 IC50) |
| --- | --- | --- |
| COCCOc1cccc2c(NCc3ccccc3)nc(-n3c(CO)nc4ccccc43)nc12 [{1-[4-(benzylamino)-8-(2-methoxyethoxy)quinazolin-2-yl]-1H-1,3-benzodiazol-2-yl}methanol] | – | < 300 nM |
| CS(=O)(=O)N1CCc2c(nc(-n3c(CN)cc4ccccc43)nc2NCc2ccccc2)C1 | < 2000 nM | – |
| COc1nc2ccccc2n1-c1nc(NCc2ccccc2)c2c(n1)C(=O)NCC2 | < 5000 nM | – |
| COc1cccc2c(NCc3ccccc3)nc(-n3c(C)nc(C)c3C)nc12 | < 25000 nM | – |
| Cc1cc2ccccc2n1-c1nc2c(c(NCc3ccccc3)n1)CNCC2 | < 2000 nM | – |
| Cc1cc2ccccc2n1-c1nc2c(c(NCc3ccccc3)n1)CN(C(C)C)CC2 [N-benzyl-2-(2-methyl-1H-indol-1-yl)-6-(propan-2-yl)-5H,6H,7H,8H-pyrido[4,3-d]pyrimidin-4-amine] | – | < 300 nM |
| CN(C)Cc1cccc2c(NCc3ccccc3)nc(-n3c(N)nc4ccccc43)nc12 | < 25000 nM | – |
| COc1cccc2c(NCc3ccccc3)nc(N3c4ccccc4CC3C)nc12 (centres unmarked) | < 5000 nM | – |
| CC(=O)N1CCc2nc(-n3c(C)cc4ccccc43)nc(NCc3ccccc3)c2C1 | < 2000 nM | – |
| OCc1nc2ccccc2n1-c1nc2c(c(NCc3ccccc3)n1)CCCC2 [{1-[4-(benzylamino)-5,6,7,8-tetrahydroquinazolin-2-yl]-1H-1,3-benzodiazol-2-yl}methanol] | – | < 300 nM |
| COc1cccc2c(NCc3ccccc3)nc(-n3c(/C=C\C#N)cc4ccccc43)nc12 [(2Z)-3-{1-[4-(benzylamino)-8-methoxyquinazolin-2-yl]-1H-indol-2-yl}prop-2-enenitrile] | – | < 300 nM |
| COC1=Nc2ccccc2C1c1nc(NCc2ccc(F)cc2)c2cccc(OC)c2n1 (centres unmarked) | < 2000 nM | – |
| Cc1cc2ccccc2n1-c1nc2c(c(NCc3ccccc3)n1)CCN(C(=O)OC(C)(C)C)C2 | < 2000 nM | – |
| COc1nc2ccccc2n1-c1nc(NCc2ccccc2)c2ncsc2n1 | < 2000 nM | – |
| NCCOc1cccc2c(NCc3ccccc3)nc(-n3c(N)nc4ccccc43)nc12 | < 2000 nM | – |

Results, then the compound that gave them:

| IC50 [1] | IC50 (read-out: p97 IC50) | SMILES |
| --- | --- | --- |
| < 10000 nM | – | COc1cccc2c(NCc3ccccc3)nc(-n3cc(C)c4ccccc43)nc12 |
| – | < 300 nM | COCCOc1cccc2c(NCc3ccccc3)nc(-n3c(C)nc4ccccc43)nc12 [N-benzyl-8-(2-methoxyethoxy)-2-(2-methyl-1H-1,3-benzodiazol-1-yl)quinazolin-4-amine] |
| < 2000 nM | – | COc1cccc2c(NCc3ccccc3)nc(-c3c(C)oc4ccccc34)nc12 |
| < 2000 nM | – | COc1cccc2c(NCc3ccccc3)nc(-n3c(/C=C/C#N)cc4ccccc43)nc12 [drawing 242] |
| < 2000 nM | – | COc1cc2ccccc2n1-c1nc(NCc2ccccc2)c2c(n1)C(=O)N(C(=O)OC(C)(C)C)CC2 |
| – | < 100 nM | CCN1CCc2nc(-n3c(C)cc4c(C#N)cccc43)nc(NCc3ccccc3)c2C1 [1-[4-(benzylamino)-6-ethyl-5H,6H,7H,8H-pyrido[4,3-d]pyrimidin-2-yl]-2-methyl-1H-indole-4-carbonitrile] |
| – | < 100 nM | COCCOc1cccc2c(NCc3ccccc3)nc(-n3c(CN(C)C)cc4ccccc43)nc12 [N-benzyl-2-{2-[(dimethylamino)methyl]-1H-indol-1-yl}-8-(2-methoxyethoxy)quinazolin-4-amine] |
| < 10000 nM | – | COc1cccc2c(NCc3ccccc3)nc(CCC(C)C)nc12 |
| < 2000 nM | – | COc1cccc2c(NCc3ccccc3)nc(N3C(=O)Cc4ccccc43)nc12 |
| < 2000 nM | – | CC(=O)C1CCc2c(nc(-n3c(CN)cc4ccccc43)nc2NCc2ccccc2)C1 (centres unmarked) |
| < 2000 nM | – | NCc1cc2ccccc2n1-c1cc(NCc2ccccc2)c2c(n1)CN(C(N)=O)CC2 |
| < 2000 nM | – | CC(=O)N1Cc2nc(-n3c(C)cc4ccccc43)nc(NCc3ccccc3)c2C1 |
| – | < 300 nM | Clc1cc2ccccc2n1-c1nc2c(c(NCc3ccccc3)n1)CNCC2 [N-benzyl-2-(2-chloro-1H-indol-1-yl)-5H,6H,7H,8H-pyrido[4,3-d]pyrimidin-4-amine] |
| < 2000 nM | – | COc1cccc2c(NCc3ccccc3)nc(-n3c(/C=C/S(C)(=O)=O)cc4ccccc43)nc12 [drawing 244] |
| < 2000 nM | – | COc1cc2ccccc2n1-c1nc2c(c(NCc3ccccc3)n1)CCCC2 [drawing 226] |
| < 2000 nM | – | CS(=O)(=O)NCc1cc2ccccc2n1-c1nc2c(c(NCc3ccccc3)n1)CCCC2 [drawing 233] |
| – | < 100 nM | Cc1cc2c(C#N)cccc2n1-c1nc2c(c(NCc3ccccc3)n1)CCCC2 [1-[4-(benzylamino)-5,6,7,8-tetrahydroquinazolin-2-yl]-2-methyl-1H-indole-4-carbonitrile] |
| < 2000 nM | – | COc1cccc2c(NCc3ccccc3)nc(-n3c(CN)nc4sccc43)nc12 |
| < 2000 nM | – | NC(=O)NCc1cc2ccccc2n1-c1nc2c(c(NCc3ccccc3)n1)CCCC2 [drawing 231] |
| < 5000 nM | – | COc1cccc2c(NCc3ccoc3)nc(-n3c(N)nc4ccccc43)nc12 |
| < 2000 nM | – | COc1nc2ccccc2n1-c1nc2c(c(NCc3ccccc3)n1)CNCC2 |
| – | < 300 nM | COCCOc1cccc2c(NCc3ccccc3)nc(-n3c(C(C)N)cc4ccccc43)nc12 (centres unmarked) [2-[2-(1-aminoethyl)-1H-indol-1-yl]-N-benzyl-8-(2-methoxyethoxy)quinazolin-4-amine] |

| IC50 [1] | IC50 (read-out: p97 IC50) | SMILES |
| --- | --- | --- |
| – | < 100 nM | COc1cccc2c(NCc3ccccc3)nc(-n3c(/C=C(/C#N)C(N)=O)cc4ccccc43)nc12 [(2Z)-3-{1-[4-(benzylamino)-8-methoxyquinazolin-2-yl]-1H-indol-2-yl}-2-cyanoprop-2-enamide] |
| – | < 100 nM | COc1cccc2c(NCc3ccccc3)nc(-c3c(C)[nH]c4ccccc34)nc12 [N-benzyl-8-methoxy-2-(2-methyl-1H-indol-3-yl)quinazolin-4-amine] |
| < 2000 nM | – | COc1cccc2c(NCc3ccccc3)nc(-n3c(OC)nc4ccccc43)nc12 |
| < 2000 nM | – | C=CC(=O)NCc1cc2ccccc2n1-c1nc(NCc2ccccc2)c2cccc(OC)c2n1 |
| – | < 30 nM | COCCOc1cccc2c(NCc3ccccc3)nc(-n3c(C)cc4c(C#N)cccc43)nc12 [1-[4-(benzylamino)-8-(2-methoxyethoxy)quinazolin-2-yl]-2-methyl-1H-indole-4-carbonitrile] |
| < 2000 nM | – | COc1cccc2c(NCc3ccccc3)nc(-n3c(OC)cc4ccccc43)nc12 [drawing 204] |
| < 2000 nM | – | COc1cccc2c(NCc3ccccc3)nc(-n3c(N(C)C)nc4ccccc43)nc12 |
| < 5000 nM | – | CCc1cc2ccccc2n1-c1nc2c(c(NCc3ccccc3)n1)CCCC2 |
| < 5000 nM | – | COc1cccc2c(NCc3ccco3)nc(-n3c(N)nc4ccccc43)nc12 |
| < 10000 nM | – | COc1cccc2c(NCc3ccccc3)nc(C(C)c3ccccc3)nc12 (centres unmarked) |
| < 5000 nM | – | Nc1nc2ccccc2n1-c1nc(NCc2ccccc2)c2nc[nH]c2n1 |
| – | < 300 nM | Cc1[nH]c2ccccc2c1-c1nc2c(c(NCc3ccccc3)n1)CCCC2 [N-benzyl-2-(2-methyl-1H-indol-3-yl)-5,6,7,8-tetrahydroquinazolin-4-amine] |
| < 5000 nM | – | COc1cccc2c(NCc3ccccc3)nc(N(C(N)=O)c3ccccc3)nc12 |
| – | < 300 nM | COc1cc2c(C#N)cccc2n1-c1nc2c(c(NCc3ccccc3)n1)CNCC2 [1-[4-(benzylamino)-5H,6H,7H,8H-pyrido[4,3-d]pyrimidin-2-yl]-2-methoxy-1H-indole-4-carbonitrile] |
| < 2000 nM | – | CC(=O)NCc1cc2ccccc2n1-c1nc2c(c(NCc3ccccc3)n1)CCCC2 [drawing 230] |
| < 2000 nM | – | Cc1cc2ccccc2n1-c1nc(NCc2ccccc2)c2cccc(CN)c2n1 |
| < 2000 nM | – | CCN1CCc2c(nc(-n3c(CN)cc4ccccc43)nc2NCc2ccccc2)C1 |
| – | < 300 nM | COc1cccc2c(NCc3ccccc3)nc(-n3c(/C=C/C#N)cc4ccccc43)nc12 [(2E)-3-{1-[4-(benzylamino)-8-methoxyquinazolin-2-yl]-1H-indol-2-yl)prop-2-enenitrile] |
| < 2000 nM | – | NC(=O)COc1cccc2c(NCc3ccccc3)nc(-n3c(N)nc4ccccc43)nc12 |
| < 2000 nM | – | Cc1cc2ccccc2n1-c1nc2c(c(NCc3ccccc3)n1)CCNC2 |
| < 2000 nM | – | CNc1nc2ccccc2n1-c1nc(NCc2ccccc2)c2cccc(OC)c2n1 |
